The values that follow come from ChEMBL document CHEMBL1155626, “Metabolites of Colletotrichum gloeosporioides, an endophytic fungus in Artemisia mongolica” (2000).

Holding throughout (format): functional
In one test the test system is Bacillus subtilis. Description: Antimicrobial activity against Bacillus subtilis after 48 hrs by paper disk assay.
The test system of another test is Micrococcus luteus. Briefly: Antimicrobial activity against Sarcina lutea after 48 hrs by paper disk assay.
For another test, the system named is Staphylococcus aureus. Briefly: Antimicrobial activity against Staphylococcus aureus after 48 hrs by paper disk assay.
The subject of another test is Helminthosporium. Description: Antimicrobial activity against Helminthosporium sativum after 96 hrs by paper disk assay.

Values after ≈ are worked out from the molar mass of the structure shown.

The MIC is the least concentration at which growth counts as inhibited. Lower therefore signals greater potency. With `CC1(C)S[C@@H]2[C@H](NC(=O)[C@H](N)c3ccccc3)C(=O)N2[C@H]1C(=O)O` [AMPICILLIN], the MIC in the test on Bacillus subtilis turned out to be 0.05 µg/mL (≈ 0.143 µM); with Micrococcus luteus it was 0.01 µg/mL (≈ 0.0286 µM).

`COc1c(C)c(OC(=O)c2c(C)cc(O)cc2O)c(C)c(C(=O)Oc2cc(O)c(C(=O)O)c(C)c2C)c1C` [COLLETOTRIC ACID]: the MIC in the test with Bacillus subtilis stood at 25 µg/mL (≈ 47.7 µM); against Staphylococcus aureus, 50 µg/mL (≈ 95.3 µM); against Micrococcus luteus, 50 µg/mL (≈ 95.3 µM); against Helminthosporium, 50 µg/mL (≈ 95.3 µM).

`CC(C)(C)C(=O)C(Oc1ccc(Cl)cc1)n1cncn1` (configuration not stated) [TRIADIMEFON] returned an MIC with Helminthosporium of 20 µg/mL (≈ 68.1 µM).
